The source of these data is patent US9233978B2, “6-fused heteroaryldihydropyrimidines for the treatment and prophylaxis of hepatitis B virus infection” (Hoffmann-La Roche Inc., priority 2014, dated 2016).

One data set concerns HBV. As to the kind of experiment: Anti-HBV activity in vitro, HepG2.2.15 cells, extracellular HBV DNA by qPCR. It counts as cell-based. To be noted: Hepatitis B virus, HepG2.2.15, 120 h, HepG2.2.15 cells; HBV replication inhibited by 50%, extracellular HBV DNA by qPCR; five days after compound treatment; read-out: EC50. The source says:
HepG2.2.15 and HepDE19 are stably-transfected cell lines containing the HBV genome. Both cell lines are derived from the hepatoblastoma cell line Hep G2 (American Type Culture Collection, ATCC® HB-8065™) by the published procedures described in references: MA Selles et al. Proc. Natl. Acad. Sci. USA 1987, 84, 1005-1009 and H Guo et al. Journal of Virology 2007, 81, 12472-12484, respectively. Both cell lines were maintained in Dulbecco's modified Eagle's medium (DMEM)-F12 medium supplemented with 10% fetal bovine serum, 100 U/mL penicillin, 100 μg/mL streptomycin, and 0.5 mg/mL of G418.
While HepG2.2.15 cells constitutively support HBV replication and production of virus particles, HepDE19 cells are inducible by tetracycline. Addition of 1 μg/mL tetracycline in culture medium suppresses HBV replication in HepDE19 cells, whereas switching to tetracycline-free medium resumes this process.
HepG2.2.15 cells were seeded into 96-well plates (3×10^4 cells in 100 μL media per well) and incubated overnight at 37° C. The test compounds were serially half-log diluted in DMSO, then diluted 100 times in culture media. 100 μL of diluted compounds were added into the plates to reach 0.5% final concentration of DMSO in every well. Five days after compound treatment, culture supernatant was collected for further analysis.
For quantitative PCR detection of extracellular HBV DNA, 100 μL of culture supernatant was collected and processed in MagNA Pure 96 Nucleic Acid Purification System (Roche Applied Science) for viral DNA extraction. The extracted samples were subjected to HBV DNA quantification by qPCR.

The next data set in a line: Lysa solubility. In kind it is physicochemical. To be noted: 0.05 M phosphate buffer (pH 6.5); for solubility thermodynamic: phosphate buffer, pH 6.5, aqueous buffer, thermodynamic from solid. As to the method:
Samples were prepared in duplicate from 10 mM DMSO stock solutions. After evaporation of DMSO with a centrifugal vacuum evaporator, the residue was solved in 0.05 M phosphate buffer (pH 6.5), stirred for one hour and shook for two hours. After one night, the solution was filtered using a microtiter filter plate. Then the filtrate and its 1/10 dilution were analyzed by direct UV measurement or by HPLC-UV. […] The results were in μg/mL. In case the percentage of sample measured in solution after evaporation divided by the calculated maximum of sample amount was over 80%, the solubility was reported as higher than this value.

Each structure is given as a SMILES string. Values after ≈ are worked out from the molar mass of the structure shown.

As usually defined, the EC50 is the concentration needed to bring the measured effect to its halfway point. The term thermodynamic solubility denotes the concentration in solution at equilibrium with solid. Take `COC(=O)C1=C(CN2CCN3C(=O)N(c4ccc(C(=O)O)nc4)CC3C2)NC(c2nccs2)=N[C@H]1c1ccc(F)cc1Cl` (mixture of isomers) [Example 95, 5-[7-[[(4R)-4-(2-chloro-4-fluoro-phenyl)-5-methoxycarbonyl-2-thiazol-2-yl-1,4-dihydropyrimidin-6-yl]methyl]-3-oxo-5,6,8,8a-tetrahydro-1H-imidazo[1,5-a]pyrazin-2-yl]pyridine-2-carboxylic acid]: the EC50 in the data set on HBV came to 11 nM. In “Lysa solubility”, this compound came in with a thermodynamic solubility of 307 µg/mL (≈ 490 µM).

For the compound `COC(=O)C1=C(CN2CCN3C(=O)N(C4CC4)C[C@H]3[C@@H]2C(=O)O)NC(c2nccs2)=N[C@H]1c1ccc(F)c(F)c1C` (single isomer, unassigned) [Example 83A], the “Lysa” value in “Lysa solubility” was above 740 µg/mL.

As to `CCOC(=O)C1=C(CN2CCN3C(=O)N(C(C)C)C[C@H]3[C@@H]2C(=O)O)NC(c2nccs2)=N[C@H]1c1cccc(F)c1Cl` (single isomer, unassigned) [Example 84A], the EC50 with HBV worked out at 45 nM. Also, the “Lysa” value in the data set “Lysa solubility” worked out at 570 µg/mL.

Turning to `COC(=O)C1=C(CN2CCN3C(=O)N(C4(CC(=O)O)CC4)CC3C2)NC(c2nccs2)=N[C@H]1c1ccc(F)cc1Cl` (stereo in doubt) [Example 47, 2-[1-[(8aR)-7-[[(4R)-4-(2-chloro-4-fluoro-phenyl)-5-methoxycarbonyl-2-thiazol-2-yl-1,4-dihydropyrimidin-6-yl]methyl]-3-oxo-5,6,8,8a-tetrahydro-1H-imidazo[1,5-a]pyrazin-2-yl]cyclopropyl]acetic acid], in the data set on HBV, the concentration for a half-maximal effect (EC50) stood at 51 nM. Moreover, the thermodynamic solubility in the data set “Lysa solubility” is above 767 µg/mL.

For `CCOC(=O)C1=C(CN2CCN3C(=O)N([C@@H]4CCCC4C(=O)O)C[C@@H]3C2)NC(c2nccs2)=N[C@H]1c1cccc(F)c1Cl` (stereo in doubt) [Example 49, (1S,2R)-2-[(8aS)-7-[[(4R)-4-(2-chloro-3-fluoro-phenyl)-5-ethoxycarbonyl-2-thiazol-2-yl-1,4-dihydropyrimidin-6-yl]methyl]-3-oxo-5,6,8,8a-tetrahydro-1H-imidazo[1,5-a]pyrazin-2-yl]cyclopentanecarboxylic acid], the EC50 with HBV came to 8 nM. Also, in “Lysa solubility”, the thermodynamic solubility came to 312 µg/mL (≈ 494 µM).

Take `COC(=O)C1=C(CN2CCN3C(=O)NC[C@H]3C2)NC(c2nccs2)=N[C@H]1c1ccc(F)cc1Cl` [Example 12, Methyl (4R)-6-[[(8aS)-3-oxo-1,2,5,6,8,8a-hexahydroimidazo[1,5-a]pyrazin-7-yl]methyl]-4-(2-chloro-4-fluoro-phenyl)-2-thiazol-2-yl-1,4-dihydropyrimidine-5-carboxylate]: in the data set on HBV, the EC50 worked out at 149 nM.

Turning to `CCOC(=O)C1=C(CN2CCN3C(=O)NC[C@H]3C2)NC(c2nccs2)=N[C@H]1c1ccc(F)cc1Br` [Example 13, Ethyl (4R)-6-[[(8aS)-3-oxo-1,2,5,6,8,8a-hexahydroimidazo[1,5-a]pyrazin-7-yl]methyl]-4-(2-bromo-4-fluoro-phenyl)-2-thiazol-2-yl-1,4-dihydropyrimidine-5-carboxylate], the half-maximal effective concentration (EC50) in the data set on HBV was 66 nM.

In the case of `COC(=O)C1=C(CN2CCN3C(=O)NC(=O)[C@H]3C2)NC(c2nccs2)=N[C@H]1c1ccc(F)cc1Cl` [Example 15, Methyl (4R)-6-[[(8aR)-1,3-dioxo-5,6,8,8a-tetrahydroimidazo[1,5-a]pyrazin-7-yl]methyl]-4-(2-chloro-4-fluoro-phenyl)-2-thiazol-2-yl-1,4-dihydropyrimidine-5-carboxylate], the EC50 in the data set with HBV turned out to be 110 nM.

As to `COC(=O)C1=C(CN2CCN3C(=O)NC(=O)[C@@H]3C2)NC(c2nccs2)=N[C@H]1c1ccc(F)cc1Cl` [Example 16, Methyl (4R)-6-[[(8aS)-1,3-dioxo-5,6,8,8a-tetrahydroimidazo[1,5-a]pyrazin-7-yl]methyl]-4-(2-chloro-4-fluoro-phenyl)-2-thiazol-2-yl-1,4-dihydropyrimidine-5-carboxylate], the EC50 in the data set on HBV was 41 nM.

On to `COC(=O)C1=C(CN2CCN3[C@H](CNS3(=O)=O)C2)NC(c2nccs2)=N[C@H]1c1ccc(F)cc1Cl` [Example 17, Methyl (4R)-6-[[(3aS)-1,1-dioxo-2,3,3a,4,6,7-hexahydro-[1,2,5]thiadiazolo[2,3-a]pyrazin-5-yl]methyl]-4-(2-chloro-4-fluoro-phenyl)-2-thiazol-2-yl-1,4-dihydropyrimidine-5-carboxylate], for which, in the data set on HBV, the EC50 came to 39 nM.

In the case of `COC(=O)C1=C(CN2CCN3[C@@H](CNS3(=O)=O)C2)NC(c2nccs2)=N[C@H]1c1ccc(F)cc1Cl` [Example 18, Methyl (4R)-6-[[(3aR)-1,1-dioxo-2,3,3a,4,6,7-hexahydro-[1,2,5]thiadiazolo[2,3-a]pyrazin-5-yl]methyl]-4-(2-chloro-4-fluoro-phenyl)-2-thiazol-2-yl-1,4-dihydropyrimidine-5-carboxylate], the EC50 with HBV is 108 nM.

On to `CCOC(=O)C1=C(CN2CCN3C(=O)N(C(C)(C)C(=O)OC)CC3C2)NC(c2nccs2)=N[C@H]1c1cccc(F)c1Cl` (stereo partly drawn) [Example 23, Ethyl (4R)-4-(2-chloro-3-fluoro-phenyl)-6-[[2-(2-methoxy-1,1-dimethyl-2-oxo-ethyl)-3-oxo-5,6,8,8a-tetrahydro-1H-imidazo[1,5-a]pyrazin-7-yl]methyl]-2-thiazol-2-yl-1,4-dihydropyrimidine-5-carboxylate], for which the EC50 with HBV was 3 nM.

As to `COC(=O)C1=C(CN2CCN3C(=O)N(C4(CC(=O)O)CC4)C[C@H]3C2)NC(c2nccs2)=N[C@H]1c1ccc(F)cc1Cl` [Example 46, 2-[1-[(8aR)-7-[[(4R)-4-(2-chloro-4-fluoro-phenyl)-5-methoxycarbonyl-2-thiazol-2-yl-1,4-dihydropyrimidin-6-yl]methyl]-3-oxo-5,6,8,8a-tetrahydro-1H-imidazo[1,5-a]pyrazin-2-yl]cyclopropyl]acetic acid], the EC50 in the data set on HBV was 26 nM. Besides, the solubility (thermodynamic) in “Lysa solubility” was above 744 µg/mL.

With `COC(=O)C1=C(CN2CCN3C(=O)N([C@H]4CCC[C@@H]4C(=O)O)C[C@@H]3C2)NC(c2nccs2)=N[C@H]1c1ccc(F)cc1Cl` [Example 52, (1S,2S)-2-[(8aS)-7-[[(4R)-4-(2-chloro-4-fluoro-phenyl)-5-methoxycarbonyl-2-thiazol-2-yl-1,4-dihydropyrimidin-6-yl]methyl]-3-oxo-5,6,8,8a-tetrahydro-1H-imidazo[1,5-a]pyrazin-2-yl]cyclopentanecarboxylic acid], the EC50 in the data set on HBV is 30 nM.

For the compound `CCOC(=O)C1=C(CN2CCN3C(=O)N([C@H](C)CC(=O)O)C[C@@H]3C2)NC(c2nccs2)=N[C@H]1c1cccc(F)c1Cl` [Example 57, (R)-6-[(S)-2-((R)-2-Carboxy-1-methyl-ethyl)-3-oxo-hexahydro-imidazo[1,5-a]pyrazin-7-ylmethyl]-4-(2-chloro-3-fluoro-phenyl)-2-thiazol-2-yl-1,4-dihydro-pyrimidine-5-carboxylic acid ethyl ester], the EC50 with HBV turned out to be 32 nM.

For `CCOC(=O)C1=C(CN2CCN3C(=O)N([C@@H](C)CC(=O)O)C[C@@H]3C2)NC(c2nccs2)=N[C@H]1c1cccc(F)c1Cl` [Example 58, (R)-6-[(S)-2-((S)-2-Carboxy-1-methyl-ethyl)-3-oxo-hexahydro-imidazo[1,5-a]pyrazin-7-ylmethyl]-4-(2-chloro-3-fluoro-phenyl)-2-thiazol-2-yl-1,4-dihydro-pyrimidine-5-carboxylic acid ethyl ester], the EC50 with HBV turned out to be 19 nM.

On to `COC(=O)C1=C(CN2CCN3C(=O)N(CCCC(C)(C)CO)CC3C2)NC(c2nccs2)=N[C@H]1c1ccc(F)cc1Cl` (stereo partly drawn) [Example 69, Methyl (4R)-4-(2-chloro-4-fluoro-phenyl)-6-[[2-(5-hydroxy-4,4-dimethyl-pentyl)-3-oxo-5,6,8,8a-tetrahydro-1H-imidazo[1,5-a]pyrazin-7-yl]methyl]-2-thiazol-2-yl-1,4-dihydropyrimidine-5-carboxylate], for which the EC50 in the data set on HBV was determined as 13 nM.

Turning to `CCOC(=O)C1=C(CN2CCN3C(=O)N(CC(F)(F)C(=O)O)C[C@@H]3C2)NC(c2nccs2)=N[C@H]1c1ccc(F)c(F)c1C` [Example 96, (S)-6-[(S)-2-(2-Carboxy-2,2-difluoro-ethyl)-3-oxo-hexahydro-imidazo[1,5-a]pyrazin-7-ylmethyl]-4-(3,4-difluoro-2-methyl-phenyl)-2-thiazol-2-yl-1,4-dihydro-pyrimidine-5-carboxylic acid ethyl ester], the EC50 in the data set with HBV amounted to 150 nM.
